Tested on: T1, DSR-S vardel Δ4N (Thio-DSR-S vardel Δ4N-His)
T1 construct: gene dsrS; truncated form (variable region and part of C-terminal region deleted)
Experiment: initial velocity, released fructose by HPLC
Format: biochemical, Leuconostoc mesenteroides
Conditions: 50 mM sodium acetate pH 5.2, 0.05 g/L CaCl2, 25 °C; 10-600 mM sucrose; fit with substrate inhibition
Source text: initial velocity, released fructose by HPLC on DSR-S vardel Δ4N (Thio-DSR-S vardel Δ4N-His)

Compound: OC[C@H]1O[C@@](CO)(O[C@H]2O[C@H](CO)[C@@H](O)[C@H](O)[C@H]2O)[C@@H](O)[C@@H]1O [sucrose]
- Km: 115.8 mM

From PMC3799614, “Combinatorial Engineering of Dextransucrase Specificity” (PLoS ONE, 2013)
